From US9156801B2, “2-substituted oleanolic acid derivative, method preparing for same, and application thereof” (HANGZHOU BENSHENG PHARMACEUTICAL CO., LTD., priority 2011, dated 2015)
In brackets after ≈: the same amount, converted by molar mass.

Key:
A549 cell line = assay: solid tumor cell growth inhibition, MTT; assay type: cell-based; settings: Homo sapiens; for IC50: A549, 72 h; for inhibition at 16 µg/mL: A549, 16 μg/mL compound, 72 h, read-out: IR (cell proliferation inhibition rate)
Experimental: (§1) Hep-2 (laryngeal carcinoma), A549 (human lung cancer), CaES-17 (esophageal cancer cell), PC-3 (prostate cancer), CNE (nasopharyngeal carcinoma cell), and SK-OV-3 (ovarian cancer cell), all of which are purchased from China Center For Type Culture Collection; RKO (human colon adenocarcinoma cell), MGC 803 (human gastric cancer cell), MG63 (osteosarcoma) and U87 MG (malignant glioma cell), all of which are purchased from Fuxiang Bio-tech Co. Ltd., Shanghai, China; PANC-1 (pancreatic cancer), Hep G2 (human liver cancer cell), Becap37 (human breast cancer cell), and Hela (human cervical cancer cell), all of which are donated by Cancer Research Institute of Zhejiang University, China.
(§2) Obtaining 4000 well-growing human solid tumor cells and inoculating them into wells of a 96-well cell culture plate. The culture medium is DMEM High Glucose cell culture medium containing 10% fetal bovine serum. The plate is placed in a carbon dioxide cell incubator (5% CO2) at 37° C. for 24 hours. After adding the 2-substituted oleanolic acid derivatives of different concentrations and mixing uniformly, the plate is placed in a carbon dioxide cell incubator (5% CO2) at 37° C. and incubated for 72 hours. Then the relative number of the living cells is determined by MTT method. In this experiment, the cell proliferation inhibition rate in control group (not treated with any compound) is set as 0%.

CaES-17 cell line = assay: solid tumor cell growth inhibition, MTT; assay type: cell-based; settings: Homo sapiens, CaEs17; for inhibition at 16 µg/mL: CaES-17, 16 μg/mL compound, 72 h, read-out: IR (cell proliferation inhibition rate); for IC50: CaES-17, 72 h
Experimental: as §1, §2

PANC-1 cell line = assay: solid tumor cell growth inhibition, MTT; assay type: cell-based; settings: Homo sapiens; for IC50: PANC-1, 72 h; for inhibition at 16 µg/mL: PANC-1, 16 μg/mL compound, 72 h, read-out: IR (cell proliferation inhibition rate)
Experimental: as §1, §2

PC-3 cell line = assay: solid tumor cell growth inhibition, MTT; assay type: cell-based; settings: Homo sapiens; for IC50: PC-3, 72 h; for inhibition at 16 µg/mL: PC-3, 16 μg/mL compound, 72 h, read-out: IR (cell proliferation inhibition rate)
Experimental: as §1, §2

RKO cell line = assay: solid tumor cell growth inhibition, MTT; assay type: cell-based; settings: Homo sapiens, 72 h; for inhibition at 16 µg/mL: 16 μg/mL compound, read-out: IR (cell proliferation inhibition rate)
Experimental: as §1, §2

CNE cell line = assay: solid tumor cell growth inhibition, MTT; assay type: cell-based; settings: Homo sapiens, 72 h; for inhibition at 16 µg/mL: 16 μg/mL compound, read-out: IR (cell proliferation inhibition rate)
Experimental: as §1, §2

Hela cell line = assay: solid tumor cell growth inhibition, MTT; assay type: cell-based; settings: Homo sapiens, 72 h; for IC50: HeLa; for inhibition at 16 µg/mL: Hela, 16 μg/mL compound, read-out: IR (cell proliferation inhibition rate)
Experimental: as §1, §2

Hep-2 cell line = assay: solid tumor cell growth inhibition, MTT; assay type: cell-based; settings: Homo sapiens; for IC50: HEp-2, 72 h; for inhibition at 16 µg/mL: Hep-2, 16 μg/mL compound, 72 h, read-out: IR (cell proliferation inhibition rate)
Experimental: as §1, §2

Becap37 cell line = assay: solid tumor cell growth inhibition, MTT; assay type: cell-based; settings: Homo sapiens; for inhibition at 16 µg/mL: Becap37, 16 μg/mL compound, 72 h, read-out: IR (cell proliferation inhibition rate); for IC50: Becap37, 72 h
Experimental: as §1, §2

SK-OV-3 cell line = assay: solid tumor cell growth inhibition, MTT; assay type: cell-based; settings: Homo sapiens; for IC50: SK-OV-3, 72 h; for inhibition at 16 µg/mL: SK-OV-3, 16 μg/mL compound, 72 h, read-out: IR (cell proliferation inhibition rate)
Experimental: as §1, §2

U87 MG cell line = assay: solid tumor cell growth inhibition, MTT; assay type: cell-based; settings: Homo sapiens, U-87 MG, 72 h; for inhibition at 16 µg/mL: 16 μg/mL compound, read-out: IR (cell proliferation inhibition rate)
Experimental: as §1, §2

MG-63 cell line = assay: solid tumor cell growth inhibition, MTT; assay type: cell-based; settings: Homo sapiens; for IC50: MG-63, 72 h; for inhibition at 16 µg/mL: MG-63, 16 μg/mL compound, 72 h, read-out: IR (cell proliferation inhibition rate)
Experimental: as §1, §2

MGC 803 cell line = assay: solid tumor cell growth inhibition, MTT; assay type: cell-based; settings: Homo sapiens; for inhibition at 16 µg/mL: MGC 803, 16 μg/mL compound, 72 h, read-out: IR (cell proliferation inhibition rate); for IC50: MGC 803, 72 h
Experimental: as §1, §2

Kasumi-1 cell line = assay: leukemia cell growth inhibition, MTT; assay type: cell-based; settings: Homo sapiens; for inhibition at 16 µg/mL: Kasumi-1, 16 μg/mL compound, 72 h, read-out: IR (cell proliferation inhibition rate); for IC50: Kasumi-1, 72 h
Text: (§3) Leukemia cell lines: leukemia cell lines: K562/adr (drug-resistant, chronic myeloid leukemia, CML), NB4 (acute promyelocytic leukemia, AML), Kasumi-1 (acute myeloid leukemia M2 type, AML-M2), Jurkat (acute lymphoblastic leukemia, ALL), all of which are donated by Cancer Research Institute of Zhejiang University, China; and H9 (acute lymphoblastic leukemia, ALL), which is purchased from China Center for Type Culture Collection (CCTCC).
(§4) Obtaining 6000 well-growing leukemia cells and inoculating them into wells of a 96-well cell culture plate. The culture medium is the 1640 cell culture medium containing 10% fetal bovine serum. After adding the 2-substituted oleanolic acid derivatives of different concentrations and mixing uniformly, placing the plate in a carbon dioxide cell incubator (5% CO2) at 37° C. and incubated for 72 hours. Then the relative number of viable cells is determined by MTT method. In this experiment, cell proliferation inhibition rate in control group (not treated with any compound) is set as 0%.

H9 cell line = assay: leukemia cell growth inhibition, MTT; assay type: cell-based; settings: Homo sapiens; for IC50: H9, 72 h; for inhibition at 16 µg/mL: H9, 16 μg/mL compound, 72 h, read-out: IR (cell proliferation inhibition rate)
Text: as §3, §4

Jurkat cell line = assay: leukemia cell growth inhibition, MTT; assay type: cell-based; settings: Homo sapiens, 72 h; for inhibition at 16 µg/mL: 16 μg/mL compound, read-out: IR (cell proliferation inhibition rate)
Text: as §3, §4

NB4 cell line = assay: leukemia cell growth inhibition, MTT; assay type: cell-based; settings: Homo sapiens, NB-4; for inhibition at 16 µg/mL: NB4, 16 μg/mL compound, 72 h, read-out: IR (cell proliferation inhibition rate); for IC50: NB4, 72 h
Text: as §3, §4

K562/adr cell line = assay: leukemia cell growth inhibition, MTT; assay type: cell-based; settings: Homo sapiens, 72 h; for IC50: K562/Adr; for inhibition at 16 µg/mL: K562/adr, 16 μg/mL compound, read-out: IR (cell proliferation inhibition rate)
Text: as §3, §4

Hep G2 cell line = assay: solid tumor cell growth inhibition, MTT; assay type: cell-based, human; settings: Homo sapiens; for inhibition at 16 µg/mL: HepG2, 72 h, Hep G2, 16 μg/mL compound, 72 h, read-out: IR (cell proliferation inhibition rate); for IC50: HepG2, Hep G2, 72 h
Experimental: as §1, §2

RPMI8226 cell line = assay: multiple myeloma cell growth inhibition, MTT; assay type: cell-based; settings: Homo sapiens, RPMI-8226; for inhibition at 16 µg/mL: RPMI8226, 16 μg/mL compound, 72 h, read-out: IR (cell proliferation inhibition rate); for IC50: RPMI8226, 72 h
Experimental: Multiple myeloma cell lines: RPMI8226 (multiple myeloma), purchased from Fuxiang Bio-tech Co. Ltd., Shanghai, China.
Obtaining 6000 well-growing cells as above and inoculating them into wells of a 96-well cell culture plate. The culture medium is the 1640 cell culture medium containing 10% fetal bovine serum. After adding the 2-substituted oleanolic acid derivatives of different concentrations and mixing uniformly, placing the plate in a carbon dioxide cell incubator (5% CO2) at 37° C. and incubated for 72 hours. Then the relative number of viable cells is determined by MTT method. In this experiment, cell proliferation inhibition rate in control group (not treated with any compound) is set as 0%.

IC50 (A549 cell line) | IC50 (CaES-17 cell line) | IC50 (PANC-1 cell line) | IC50 (PC-3 cell line) | IC50 (RKO cell line) | IC50 (CNE cell line) | IC50 (Hela cell line) | IC50 (Hep-2 cell line) | IC50 (Becap37 cell line) | IC50 (SK-OV-3 cell line) | SMILES | inhibition at 16 µg/mL (A549 cell line) | inhibition at 16 µg/mL (CaES-17 cell line) | inhibition at 16 µg/mL (PANC-1 cell line) | inhibition at 16 µg/mL (PC-3 cell line) | inhibition at 16 µg/mL (RKO cell line) | inhibition at 16 µg/mL (CNE cell line) | inhibition at 16 µg/mL (Hela cell line) | inhibition at 16 µg/mL (Hep-2 cell line) | inhibition at 16 µg/mL (Becap37 cell line) | inhibition at 16 µg/mL (SK-OV-3 cell line) | also measured
2.45 µg/mL (≈ 3.93 µM) | 3.93 µg/mL (≈ 6.31 µM) | 4.38 µg/mL (≈ 7.03 µM) | 5.06 µg/mL (≈ 8.12 µM) | 3.33 µg/mL (≈ 5.35 µM) | 4.07 µg/mL (≈ 6.53 µM) | 3.78 µg/mL (≈ 6.07 µM) | 5.85 µg/mL (≈ 9.39 µM) | 5.12 µg/mL (≈ 8.22 µM) | 5.04 µg/mL (≈ 8.09 µM) | COC(=O)[C@]12CCC(C)(C)CC1C1=CCC3[C@@]4(C)CC(C(=O)NCCCN5CCCC5)C(=O)C(C)(C)C4CC[C@@]3(C)[C@]1(C)CC2 (some centres unmarked) [BS-OA-016] | 96.8% | 99.4% | 98.5% | 99.8% | 99.4% | 99.4% | 98% | 97.2% | 99.5% | 99.5% | inhibition at 16 µg/mL (U87 MG cell line): 100%; IC50 (U87 MG cell line): 2.45 µg/mL (≈ 3.93 µM); IC50 (MG-63 cell line): 4.35 µg/mL (≈ 6.98 µM); inhibition at 16 µg/mL (MG-63 cell line): 100%; inhibition at 16 µg/mL (MGC 803 cell line): 99.1%; IC50 (MGC 803 cell line): 3 µg/mL (≈ 4.82 µM); inhibition at 16 µg/mL (Kasumi-1 cell line): 99.1%; IC50 (Kasumi-1 cell line): 3.76 µg/mL (≈ 6.04 µM); IC50 (H9 cell line): 2.96 µg/mL (≈ 4.75 µM); inhibition at 16 µg/mL (H9 cell line): 95.4%; inhibition at 16 µg/mL (Jurkat cell line): 95.1%; IC50 (Jurkat cell line): 2.38 µg/mL (≈ 3.82 µM); inhibition at 16 µg/mL (NB4 cell line): 99.8%; IC50 (NB4 cell line): 2.94 µg/mL (≈ 4.72 µM); IC50 (K562/adr cell line): 0.52 µg/mL (≈ 0.835 µM); inhibition at 16 µg/mL (K562/adr cell line): 97.8%; inhibition at 16 µg/mL (Hep G2 cell line): > 96%; IC50 (Hep G2 cell line): 2.58 µg/mL (≈ 4.14 µM); inhibition at 16 µg/mL (RPMI8226 cell line): 99%; IC50 (RPMI8226 cell line): 1.15 µg/mL (≈ 1.85 µM)
> 16 µg/mL | 17 µg/mL (≈ 27.5 µM) | > 16 µg/mL | 7.79 µg/mL (≈ 12.6 µM) | 16 µg/mL (≈ 25.9 µM) | 15.6 µg/mL (≈ 25.3 µM) | 10.8 µg/mL (≈ 17.4 µM) | > 16 µg/mL | > 16 µg/mL | 6.63 µg/mL (≈ 10.7 µM) | COC(=O)[C@]12CCC(C)(C)CC1C1=CCC3[C@@]4(C)CC(C(=O)NCCc5cccnc5)C(=O)C(C)(C)C4CC[C@@]3(C)[C@]1(C)CC2 (some centres unmarked) [BS-OA-027] | 45.6% | 49.5% | 36.9% | 68.9% | 46.8% | 51.3% | 62% | 35.5% | 34.3% | 91.6% | inhibition at 16 µg/mL (U87 MG cell line): 48.7%; IC50 (U87 MG cell line): 16 µg/mL (≈ 25.9 µM); IC50 (MG-63 cell line): > 16 µg/mL; inhibition at 16 µg/mL (MG-63 cell line): 25.4%; inhibition at 16 µg/mL (MGC 803 cell line): 80.1%; IC50 (MGC 803 cell line): 9.96 µg/mL (≈ 16.1 µM); inhibition at 16 µg/mL (Kasumi-1 cell line): 72.2%; IC50 (Kasumi-1 cell line): 12.4 µg/mL (≈ 20.1 µM); IC50 (H9 cell line): 7.72 µg/mL (≈ 12.5 µM); inhibition at 16 µg/mL (H9 cell line): 92.5%; inhibition at 16 µg/mL (Jurkat cell line): 83.4%; IC50 (Jurkat cell line): 9.85 µg/mL (≈ 16 µM); inhibition at 16 µg/mL (NB4 cell line): 93.8%; IC50 (NB4 cell line): 4.57 µg/mL (≈ 7.41 µM); IC50 (K562/adr cell line): 3.7 µg/mL (≈ 6 µM); inhibition at 16 µg/mL (K562/adr cell line): 82.6%; inhibition at 16 µg/mL (Hep G2 cell line): 51.4%; IC50 (Hep G2 cell line): 15.6 µg/mL (≈ 25.3 µM); inhibition at 16 µg/mL (RPMI8226 cell line): 86.5%; IC50 (RPMI8226 cell line): 6.1 µg/mL (≈ 9.89 µM)
